Results reported in patent publication US12324841B2, “Methods of treating cancer with a combination of an anti-PD-1 antibody and an anti-tissue factor antibody-drug conjugate” (GENMAB A/S, priority 2018, dated 2025).
“Also recorded” adds a separate entry of the source. Non-standard residues stand in square brackets, D forms with d. Residues, ends and D or L forms follow the SMILES beside them. *: point of attachment. Dolaproine = CO[C@@H]([C@@H]1CCCN1)[C@@H](C)C(=O)O; Dil = CC[C@H](C)[C@H](NC)[C@@H](CC(=O)O)OC; X1 = C[C@@H](N*)[C@@H](O)c1ccccc1; NMeV = CN[C@H](C(=O)O)C(C)C

Tests used:
HeLa cells [1] = test: Western blot analysis of ER stress in HeLa cells treated with MMAE; assay type: cell-based; conditions: 100 nM MMAE for 16 hours
Protocol: HeLa cells, a cervical cancer cell line, were cultured in Minimum Essential Medium (MEM) with 10% FBS, 10 mM HEPES, 1 mM sodium pyruvate, 2 mM L-glutamine, penicillin (100U/ml), and streptomycin (100 μg/ml). HeLa cells were treated with 100 nM MMAE for 16 hours and harvested in radioimmunoprecipitation assay buffer (RIPA) buffer for western blot analysis. […] Severe ER stress is a prerequisite to the exposure of pro-phagocytic signals on the surface of tumor cells, and can be indicated by activation of JNK signaling by phosphorylated IRE1.

HeLa cells [2] = test: ATP and HMGB1 secretion from HeLa cells treated with MMAE; assay type: cell-based; conditions: 100 nM MMAE, over 24 hours, vs untreated HeLa cells
Description: Induction of ICD is also characterized by the secretion of ATP and HMGB1. Extracellular ATP serves as a strong chemotactic signal, promoting immune cell migration to the tumor site. Upon arrival, extracellular HMGB1 signals through various pro-inflammatory receptors (TLR2, TLR4, RAGE) to activate antigen-presenting cells, thereby promoting immune activity within the tumor.

[3] = test system: MDA-MB-231 (breast cell carcinoma); test: Western blot analysis of ER stress induction in MDA-MB-231 cells; assay type: cell-based; conditions: MDA-MB-231, 18 hours (legend: 16 hours)
Protocol: (§1) Induction of cell death and release of ICD danger signals occurs concomitant with initiation of an ER stress response. Two Tissue Factor positive cell lines, HPAFII (pancreatic carcinoma) and MDA-MB-231 (breast cell carcinoma) were exposed to tisotumab vedotin ADC, an Isotype-MMAE ADC (H00-MMAE, IgG1 MMAE), or free MMAE for 18 hours and induction of ER stress monitored by western blot analysis. Phosphorylation of inositol-requiring transmembrane kinase/endonuclease 1 (IRE1) was detected after treatment with tisotumab vedotin ADC or MMAE free drug (FIG. 6). […] The ability for auristatins to prime the immune system to recognize tumor antigens opens the door for a myriad of combinatorial therapeutic options.

[4] = test system: CD14+ monocyte/macrophages; test: Monocyte/macrophage activation in PBMCs fed killed MDA-MB-231 cells; assay type: cell-based, human
Description: FIGS. 7A and 7B is a series of graphs in which Tissue Factor positive MDA-MB-231 cells killed with various agents were fed to human peripheral blood mononuclear cells (PBMCs) and immune activation assessed by increased expression of activations markers on innate CD14+ monocyte/macrophages and induction of chemokine and cytokine production.
Immunogenic cell death, as mediated by MMAE, is regulated cell death that activates adaptive immune responses against antigens from dead and dying tumor cells, and allows for the generation of robust innate immune cell activation and subsequent cytotoxic T cell responses targeted towards specific tumor cell antigens. […] Furthermore, these monocyte/macrophages conditioned by ICD-killed cells promote activation of T cells, as evidenced by production of signature inflammatory cytokines associated with cytotoxic T cell responses.

T cells = test: T cell activation in CSFE labeled PBMCs fed killed MDA-MB-231 cells, with or without pembrolizumab; assay type: cell-based, human; conditions: 48 hours; for T cell proliferation (CSFE dilution) / production of IFNγ / production of IL12p70: without pembrolizumab
Protocol: FIG. 8A-8C is a series of graphs in which Tissue Factor positive MDA-MB-231 cells killed with various agents were fed to CSFE labeled human peripheral blood mononuclear cells (PBMCs) in the presence or absence of the PD1 targeting antibody pembrolizumab for 48 hours and T cells activation assessed by A) decreased CSFE fluorescent indicative of T cell proliferation and B) and C) cytokine production.
Induction of the innate immune response following exposure to cancer cells undergoing ICD sets up secondary T cell activation, which can be enhanced by concomitant pembrolizumab treatment.

[5] = test system: Tissue Factor positive cell lines; test: Cell death and release of ATP and HMGB1 from Tissue Factor positive cell lines; assay type: cell-based
Description: Auristatin ADC payloads disrupt the microtubule networks resulting in altered ER localization and function, which ultimately results in ER stress.

[6] = test system: murine tumor cells that stably express human TF; test: Syngeneic tumor model: immunization with drug-killed human TF positive murine tumor cells, then tumor challenge; assay type: in vivo, Balb/c mice; conditions: mice immunized with tumor cells killed by 1-5 μg per ml tisotumab vedotin or 100 nM MMAE
Protocol: Mouse tumor cells are transfected with plasmid constructs encoding human tissue factor (TF) and sgRNA-guided Cas9 nuclease (sgRNA/Cas9) to generate a murine cell line that expresses the human TF. Fluorescence activated cell sorting (FACS) yields a clonal population of murine tumor cells that stably express human TF, these cells are then treated with 1 μg to 5 μg per ml of tisotumab vedotin or 100 nM of MMAE for 4 days. In order to prepare dying cells for immunization, treated murine tumor cells are overlaid atop Histopaque, and centrifuged at 2000 g for 30 minutes. Dead and dying cells are pelleted underneath the Histopaque layer, and viability assessed by trypan blue exclusion. A sample with approximately <20% live cells as measured by trypan blue exclusion is obtained. Flash-frozen tumor cells are prepared by submerging the cells in liquid nitrogen for 10 seconds, followed by immersion in 37° C. water until completely thawed. The liquid nitrogen freeze-thaw process is repeated 5 times. Dead and dying human TF positive tumor cells are resuspended in phosphate buffered saline (PBS) and 2×10^6 cells are injected into the peritoneum of immune-competent Balb/c mice. Seven days later, mice receive a second immunization with dead and dying cells prepared in the same manner.
Fourteen days after initial immunization with the dead and dying human TF positive tumor cells, mice are subcutaneously implanted with 5×10^6 wild-type tumor cells and monitored for tumor growth. […] As these effects occur in the absence of any administered therapeutic agent, the administration of cells killed by tisotumab vedotin or MMAE is sufficient to generate long-lasting protective immune memory against subsequent tumor cell challenge. Protective immune memory is amplified by treating these mice with tisotumab vedotin in combination with an antibody that binds to murine PD-1.

[7] = test system: HPAFII (pancreatic carcinoma); test: Western blot analysis of ER stress induction in HPAFII cells; assay type: cell-based; conditions: 18 hours (legend: 16 hours)
Protocol: as §1

HeLa cells [8] = test: Imaging of RFP-labeled tubulin and ER-binding dye in HeLa cells treated with MMAE; assay type: cell-based; conditions: 100 nM MMAE
Protocol: Treatment of HeLa cells with MMAE led to disassembly of the microtubule network and subsequent ER mislocalization. HeLa cells were transduced with a baculovirus encoding RFP-labeled Tubulin (CellLight Tubulin-RFP, ThermoFisher Scientific) and an ER-binding dye (ER-ID Green, Enzo Life Sciences). Cells were treated with 100 nM MMAE and imaged over time in the present of MMAE. Within 2 hours, fragmentation and disassembly of the microtubule network became evident, concurrent with the breakdown of the perinuclear organized ER lattice (FIGS. 2A and 2B). The condensed and mislocalized ER skeleton indicated severe ER stress within 8 hours.

advanced cervical cancer [9] = conditions: in combination with chemotherapy; cited from earlier work
advanced cervical cancer [10] = conditions: Pembrolizumab 200 mg Q3W, 82 patients; cited from earlier work
[11] = managed with interruptions of pembrolizumab, corticosteroids and/or other supportive care; cited from earlier work
[12] = test system: MDA-MB-231 cells (breast adenocarcinoma); test: MDA-MB-231 xenograft model in humanized NSG mice; assay type: in vivo; conditions: pembrolizumab alone, first dose 10 mg/kg, then 5 mg/kg every five days, IP
Protocol: Mice were subcutaneously inoculated with 5×10^6 MDA-MB-231 cells (breast adenocarcinoma; American Tissue Culture Collection (ATCC), cat. no. HTB-26), in 100 μL phosphate-buffered saline (PBS). Before inoculation, cells were cultured in DMEM with high glucose and HEPES without L-glutamine (Lonza, cat. no. BE12-[…]), 10% (v/v) donor bovine serum with iron New Zealand Origin (Thermo Fisher Scientific, DBSI, cat. no. 10371-029), 2 mM L-glutamine (Lonza, cat. no. BE17-[…]), 1 mM Na-pyruvate (Lonza, cat. no. BE13-[…]), MEM non-essential amino acids (Life Technologies, cat. no. 11140) and 1% (v/v) penicillin/streptomycin (Lonza, cat. no. DE17-[…]), in CellSTACK culture chambers (Corning, cat. no. 3313). Tumor size was determined by caliper measurement at least two times a week and tumor volume was calculated as 0.52×length×width^2. […] The first dose of the anti-PD-1 antibody (i.e., pembrolizumab) was 10 mg/kg, followed by 5 mg/kg every five days for a maximum of six treatments. […] The IgG1 isotype control antibody is the b12 antibody which is known to bind to HIV-1 gp120. […] Mice were housed in individually ventilated (IVC) cages, five mice per cage and identified by ear tags. […] Statistical comparison of tumor burden was performed using Mann-Whitney analysis on the last day that all treatment groups were intact. Kaplan-Meier analysis was performed based on tumor volume (>500 mm^3).

[13] = compared to IgG1-MMAE ADC or tisotumab alone

CC[C@H](C)[C@@H]([C@@H](CC(=O)N1CCC[C@H]1[C@H](OC)[C@@H](C)C(=O)N[C@H](C)[C@@H](O)c1ccccc1)OC)N(C)C(=O)[C@@H](NC(=O)[C@@H](NC)C(C)C)C(C)C [MMAE, Monomethyl auristatin E, reference compound] (H-[NMeV]V[Dil][Dolaproine]-X1)
phosphorylation of IRE1 (HeLa cells [1]): led to phosphorylation of the serine threonine kinase IRE1
phosphorylation of JNK (HeLa cells [1]): elicited severe ER stress by phosphorylation of IRE1 and JNK
secretion of ATP (HeLa cells [2]): increased secretion of ATP and HMGB1
secretion of HMGB1 (HeLa cells [2]): increased secretion of ATP and HMGB1
ATF4 cleavage (PERK pathway) [3]: upregulation of ATF4 cleavage
phosphorylation of IRE1 [3]: detected
phosphorylation of JNK [3]: increased phosphorylation
chemotactic and inflammatory mediators from monocyte/macrophages after uptake of dead cells [4]: elicit strong chemotactic and inflammatory mediators
monocyte/macrophage activation, CD86 expression by flow cytometry [4, 13]: drove monocyte/macrophage activations
release of innate chemokines including MIP 1β [4, 13]: induced release of innate chemokines including MIP 1β
T cell proliferation (CSFE dilution) (T cells): drove T cell proliferation
production of IFNγ (T cells): production of T cell specific cytokines such as IL12P70 and IFNγ
production of IL12p70 (T cells): production of T cell specific cytokines such as IL12P70 and IFNγ
ATP release/secretion ([5]; FIG. 5A): drove robust A) ATP secretion; also recorded: specific to tisotumab vedotin ADC and MMAE treatment
HMGB1 release/secretion ([5]; FIG. 5C): drove robust A) ATP secretion and C) HMGB1 release; also recorded: specific to tisotumab vedotin ADC and MMAE treatment
survival after challenge with wild-type tumor cells [6]: increased survival
tumor growth after challenge with wild-type tumor cells [6]: delayed tumor growth
ATF4 cleavage (PERK pathway) [7]: upregulation of ATF4 cleavage
phosphorylation of IRE1 [7]: detected
phosphorylation of JNK [7]: increased phosphorylation
time until fragmentation and disassembly of the microtubule network, with breakdown of the perinuclear ER lattice (HeLa cells [8]): ≤ 2 h
time until severe ER stress (condensed and mislocalized ER skeleton) (HeLa cells [8]): ≤ 8 h

Bevacizumab: an anti-VEGF antibody
overall survival in clinical trials (advanced cervical cancer [9]): improved overall survival

pembrolizumab: anti-PD-1 antibody, a checkpoint inhibitor; heavy chain SEQ ID NO:33 and light chain SEQ ID NO:34 [reference compound]
objective response rate (advanced cervical cancer [10]): 12%
T cell proliferation driven by tisotumab vedotin or MMAE killed cells, effect of added pembrolizumab (T cells; 2 mg/ml of pembrolizumab): enhanced
production of IFNγ after tisotumab vedotin or MMAE killed cells, effect of added pembrolizumab (T cells; concomitant pembrolizumab): increased by concomitant pembrolizumab treatment
production of IL12p70 after tisotumab vedotin or MMAE killed cells, effect of added pembrolizumab (T cells; concomitant pembrolizumab): increased by concomitant pembrolizumab treatment
reversibility of immune-related AEs (irAEs) [11]: most irAEs were reversible
tumor burden as assessed by tumor volume [12]: hardly reduced tumor burden

tisotumab: anti-TF antibody 011; heavy chain variable region SEQ ID NO:7, light chain variable region SEQ ID NO:8
T cell proliferation (CSFE dilution) (T cells): did not elicit these responses
production of IFNγ (T cells): did not elicit these responses
production of IL12p70 (T cells): did not elicit these responses
